{
  "source": "patent US20060270591A1",
  "about": "“Androgen receptor coregulators” (priority 2002, published 2006)",
  "key": {"AR [1]": {"system": "AR", "assay": "AR transactivation dual-luciferase assay with supervillin (Example 6)", "type": "cell-based, human", "conditions": "COS-1 cells; 10 nM DHT; MMTV-Luc", "method": "In AR transactivation activity assays, transfections were performed using SuperFect (Qiagen, Chatsworth, Calif.) following protocols described in manual provided by Qiagen. Briefly, cells were plated on 35 mm dishes and after 24 h were transfected using the SuperFect kit. The total DNA amount was adjusted to 2 μg with pSG5 or pEGFP vectors. The medium was changed to DMEM with 10% CD-FBS 2 h after transfection. After 24 h, the DMEM with 10% CD-FBS was changed again, and the cells were treated with various steroids. Cells were harvested after 24 h for dual-luciferase assay as described in protocol provided by Promega. At least three independent experiments were carried out in each case."}, "[2]": {"biological_target": "T1, AR N-terminus and AR C-terminus (Homo sapiens, UniProt P10275)", "T1 construct": "AR DBD plus LBD (GST-AR-DL); expressed in transfected cells; host or cells: PC-3 cells (human prostate cancer line)", "T1 sequence (P10275 555-920 limits assumed)": "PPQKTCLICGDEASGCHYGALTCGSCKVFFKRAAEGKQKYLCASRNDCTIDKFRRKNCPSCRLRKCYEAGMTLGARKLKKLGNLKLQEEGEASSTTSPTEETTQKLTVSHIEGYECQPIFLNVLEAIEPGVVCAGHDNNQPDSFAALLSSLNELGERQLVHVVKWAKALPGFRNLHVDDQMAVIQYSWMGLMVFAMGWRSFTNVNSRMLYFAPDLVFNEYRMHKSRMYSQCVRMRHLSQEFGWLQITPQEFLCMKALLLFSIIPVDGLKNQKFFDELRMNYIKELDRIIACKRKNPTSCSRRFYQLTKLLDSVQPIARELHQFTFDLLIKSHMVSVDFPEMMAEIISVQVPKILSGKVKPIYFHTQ", "T1 sequence (P10275 1-559 partner limits assumed)": "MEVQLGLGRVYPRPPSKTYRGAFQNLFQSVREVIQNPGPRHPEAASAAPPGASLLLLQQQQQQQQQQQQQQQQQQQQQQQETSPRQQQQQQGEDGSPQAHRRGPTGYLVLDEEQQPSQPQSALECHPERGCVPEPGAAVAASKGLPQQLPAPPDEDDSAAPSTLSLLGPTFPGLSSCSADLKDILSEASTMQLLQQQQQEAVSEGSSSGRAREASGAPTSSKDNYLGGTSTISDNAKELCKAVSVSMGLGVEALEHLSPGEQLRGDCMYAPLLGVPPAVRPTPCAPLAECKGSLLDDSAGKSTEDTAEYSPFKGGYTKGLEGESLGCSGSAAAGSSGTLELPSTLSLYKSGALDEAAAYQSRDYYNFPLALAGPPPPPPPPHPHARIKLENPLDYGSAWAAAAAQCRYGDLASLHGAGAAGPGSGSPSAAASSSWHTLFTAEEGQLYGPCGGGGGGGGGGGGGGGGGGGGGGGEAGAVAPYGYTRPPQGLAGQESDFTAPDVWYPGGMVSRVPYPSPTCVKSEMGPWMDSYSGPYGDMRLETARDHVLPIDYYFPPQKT", "assay": "Mammalian two-hybrid assay of AR N-C interaction in PC-3 cells", "type": "cell-based", "conditions": "DHT", "method": "44. […] PC-3 cells were transfected with 30 ng plasmids expressing Gal4(DBD)-AR-DL, VP16 or VP16-ARN combined with 1.5 μg pSG5, pSG5-bSV, -ARA55, or -SRC-1α as indicated. The reporter plasmid pG5-Luc (0.5 μg) and control plasmid pRL-Luc (1 ng) were transfected to every sample. The assay was carried out as described in FIG. 29C.\n474. Mouse myoblast cell line (C2C12), human prostate cancer cell lines (PC-3 and DU145), and monkey kidney fibroblast cell line (COS-1) were maintained in Dulbecco's minimum essential medium (DMEM) containing penicillin (25 units/ml), streptomycin ([…]), and 10% fetal bovine serum (FBS). In mammalian two-hybrid assay, transfections were performed using the calcium phosphate precipitation method as described previously (15). Briefly, 1.5-3×10^5 cells were plated on 35-mm dishes for 24 h, and the medium was changed to DMEM containing 10% charcol-dextran stripped FBS (CD-FBS) 2 h before transfection. Cells were transfected with 0.5 μg plasmids expressing Gal4(DBD) and VP-16 fusion proteins as indicated. Gal4 response element controlled Firefly luciferase expression plasmid, pG5-Luc, was used as reporter gene. A Renilla luciferase expression plasmid pRL-SV40 was used as an internal control for transfection efficiency. The total amount of DNA was adjusted to 5 μg with pCMX-VP16 vectors. […]"}, "ARA70 and AR": {"system": "ARA70 and AR", "conditions": "LNCaP cells; cited from earlier work"}, "AR [3]": {"system": "AR", "assay": "AR reporter gene assay with gelsolin (Example 5)", "type": "cell-based, human", "conditions": "for effect on gelsolin enhanced AR activity: PC-3 cells, co-transfected flag-AR peptides", "from_the_text": "468. A C-terminal fragment of gelsolin (aa 281-731) was isolated from pACT2 encoding gelsolin, and inserted into pSG5-Gal4 DNA-binding domain (DBD) (constructed by Dr. R. Nakao). AR fragment (aa 36-918) was inserted into pCMX-VP16 (a gift from Dr. D. Chen). For gelsolin expression vector, a full-length cDNA fragment of gelsolin from LKCG, a gift from Dr. D. Kwiatkowski (Northwestern University, Evanston, Ill.), was inserted into pSG5. Dr. M. L. Lu (Harvard Medical School, Boston, Mass.) provided the p (ARE) 4-luciferase (LUC) plasmid. Dr. A. Mizokami (University of Kanazawa, Kanazawa, Japan) provided the pGL3-PSA6.0LUC plasmid. The expression plasmids of AR peptides were constructed by inserting the PCR amplified cDNA fragment of AR DBD into pFlag-CMV (Sigma) and the fragments of AR LBD into pCDNA-flag plasmid. Transfection protocol and reporter gene assay were described in previous report (Ting et al. Proc Natl Acad Sci USA 99, 661-666 (2002))."}, "LNCaP cell": {"system": "LNCaP cell", "conditions": "10 nM DHT; cited from earlier work"}, "p27^KIP1": {"system": "p27^KIP1", "assay": "Western blot of p27KIP1 in PC-3(AR2) cells", "type": "cell-based, human", "conditions": "10 nM DHT", "method": "41. […] (A) C2C12, COS-1, DU145 and PC-3 cell lines were co-transfected with 30 ng pSG5-AR, 0.5 μg MMTV-Luc, 1 ng pRL-SV40, various amounts of pSG5-bSV as indicated, and adjusted to total amount of 2 μg DNA with pSG5. The assay method was the same as FIG. 2. After measuring the luciferase activity, values relative to lane 1 were calculated. Results are the mean±S.D. of three independent experiments. (B) PC-3 was co-transfected with 30 ng pSG5-AR, 1.5 μg pSG5-bSV, 1 ng pRL-SV40, and 0.5 μg reporter gene as indicated by using SuperFect. […] (C) PC-3(AR2) cell line was transfected with EGFP or EGFP-bSV expressing vector using SuperFect. […] Proteins extracted from cells were loaded on 15% SDS-PAGE and analyzed by western blotting. The intensity of each p27 band was quantified and normalized with control protein which is a non-specific band pick up by the antibody in the same blot. The relative intensities to lane 1 were calculated.\n478. Protein samples extracted from the cell were separated on 15% SDS-PAGE and transferred to nitrocellulose membranes. Membranes were incubated 1 h with 5% non-fat milk in TBST at room temperature, followed by the antibodies against p27^(KIP1) (Santa Cruz), followed by AP conjugated goat-antimouse antibody. Blots were developed using the AP developing reagent from Bio-Rad. Band intensity was quantitated by Collage® image analysis software (Fotodyne Inc.)."}, "AR [4]": {"system": "AR", "assay": "AR transactivation assay, MMTV-CAT reporter, transient transfection (Example 1)", "type": "cell-based, human", "conditions": "PC3 cells; TGF-β 5 ng/ml", "method": "Human prostate cancer DU145 or PC3 cells, or human lung carcinoma cells NCI H1299 were grown in Dulbecco's minimal essential medium (DMEM) containing penicillin (25 U/ml), streptomycin (25˜g/ml), and 5% fetal calf serum (FCS). One hour before transfection, the medium was changed to DMEM with 5% charcoal-stripped FCS. […] A β-galactosidase expression plasmid, pCMV-β-gal, was used as an internal control for transfection efficiency.\nThe medium was changed 24 hr posttransfection and the cells treated with either steroid hormones or hydroxyflutamide, and cultured for an additional 24 hr. Cells were harvested and assayed for CAT activity after the cell lysates were normalized by using β-galactosidaseas an internal control. Chloramphenicol acetyltransferase (CA) activity was visualized by PhosphorImager (Molecular Dynamics) and quantitated by ImageQuant software (Molecular Dynamics)."}, "ARA55 mRNA": {"system": "ARA55 mRNA", "assay": "Northern blot of ARA55 mRNA in PC3 cells", "type": "cell-based, human", "conditions": "5 ng/ml", "from_the_text": "360. The total RNA (25˜g) was fractionated on a 1% formaldehyde-MOPS agarose gel, transferred onto a Hybond-N nylon membrane (Amersham) and prehybridized. A probe corresponding to the 900 bp C-terminus of ARA55 or an ARA54-specific sequence was 32P-labeled in vitro using Random Primed DNA Labeling Kit (Boehringer-Mannheim) according to the manufacture's protocol and hybridized overnight. After washing, the blot was exposed and quantified by Molecular Dynamics PhosphorImager. β-actin was used to monitor the amount of total RNA in each lane."}},
  "data": [
    {"compound": "bSV(1010-1792): domain within SV (a.a. 1010-1792), conjugated with EGFP", "values": [
      {"measurement": "effect of EGFP-bSV construct on AR transactivation", "setting": "AR [1]", "result": "only a marginal effect"}
    ]},
    {"compound": "SRC-1: p160 steroid receptor coactivator-1", "values": [
      {"measurement": "effect on AR N-C interaction", "setting": "[2]", "result": "further enhance"}
    ]},
    {"compound": "Oc1ccc(C=Cc2cc(O)cc(O)c2)cc1", "note": "[resveratrol]", "values": [
      {"measurement": "expression of ARA70 and AR transactivation", "setting": "ARA70 and AR", "result": "repress the expression of ARA70 and AR transactivation"}
    ]},
    {"compound": "bSV(831-1281): peptide containing a.a. 831-1281 of bSV, conjugated with EGFP", "values": [
      {"measurement": "AR transactivation with EGFP-bSV construct", "setting": "AR [1]", "result": 248, "unit": "fold"}
    ]},
    {"compound": "gelsolin: multifunction actin-binding protein, AR coregulator", "values": [
      {"measurement": "inhibition of AR activity by HF with added gelsolin", "setting": "AR [3]; 100 nM HF, normal 10% FCS medium", "result": 40, "unit": "%"},
      {"measurement": "enhancement of AR transcription activity", "setting": "AR [3]; DU145 cells, 10 nM DHT", "result": "2-3 fold"},
      {"measurement": "effect on AR transcription activity", "setting": "AR [3]; DU145 cells, absence of DHT", "result": "no significant effect"}
    ]},
    {"compound": "C[C@]12CCC(=O)C[C@@H]1CC[C@@H]1[C@@H]2CC[C@]2(C)[C@@H](O)CC[C@@H]12", "note": "[DHT, 5α-dihydrotestosterone, reference compound]", "values": [
      {"measurement": "LNCaP cell apoptosis", "setting": "LNCaP cell", "result": "promotes LNCaP cell apoptosis"},
      {"measurement": "p27^(KIP1) protein expression", "setting": "p27^KIP1", "result": "induced p27^(KIP1) protein expression"}
    ]},
    {"compound": "HI-2: AR peptide H1-2 (aa 655-695) within AR LBD (TTQKLTVSHIEGYECQPIFLNVLEAIEPGVVCAGHDNNQPD; left off: small tags and cut ends)", "values": [
      {"measurement": "effect on gelsolin enhanced AR activity", "setting": "AR [3]", "result": "suppressed gelsolin enhanced AR activity"}
    ]},
    {"compound": "D1: AR peptide D1 (aa 551-600) within AR DBD (DYYFPPQKTCLICGDEASGCHYGALTCGSCKVFFKRAAEGKQKYLCASRN; UniProt P10275 551-600, looked up, fragment)", "values": [
      {"measurement": "effect on gelsolin enhanced AR activity", "setting": "AR [3]", "result": "suppressed gelsolin enhanced AR activity"}
    ]},
    {"compound": "TGF-β [reference compound]", "values": [
      {"measurement": "increase of AR transcription activity", "setting": "AR [4]", "result": 70, "unit": "%"},
      {"measurement": "induction of ARA55 mRNA", "setting": "ARA55 mRNA", "result": 2, "unit": "fold"}
    ]}
  ]
}
